Measured values taken from BindingDB's records for doi:10.1021/jm00114a027 (Research Biochemicals, 1991).

Experiment: Compound was tested for binding affinity to dopamine reuptake sites in the tissue homogenates prepared from […] striatum using [3H]CFT as radioligand

SMILES | IC50
COC(=O)[C@@H]1C2CC[C@H](C[C@@H]1c1ccc(I)cc1)N2C | 1.6 nM
COC(=O)C1C(c2ccc(I)cc2)CC2CCC1N2C [(3S,5R)-methyl 3-(4-iodophenyl)-8-methyl-8-aza-bicyclo[3.2.1]octane-2-carboxylate] | 88 nM
